system: Mycobacterium avium subsp. paratuberculosis; assay: Ability to act as growth factor for Mycobacterium paratuberculosis at 2.4 uM concentration, expressed as growth index; type: functional, mycobacteria paratuberculosis

Compound	GI
CCCCC/C=C/C(=O)N(O)CCCNC(=O)CC(O)(CC(=O)NCCCN(O)C(=O)/C=C/CCCCC)C(=O)O	1
CC(=O)N(O)CCCCCNC(=O)CCC(=O)N(O)CCCCCNC(=O)CCC(=O)N(O)CCCCCN [DEFEROXAMINE]	0.92
CCCCC/C=C/C(=O)N(O)CCCNC(=O)CC(O)(CC(=O)NCCCN(O)C(=O)/C=C/CCCCC)C(=O)OC(C)(C)C	0.69
COC(=O)[C@H](CCCCN(O)C(=O)/C=C/c1ccccc1)NC(=O)CC(O)(CC(=O)N[C@@H](CCCCN(O)C(=O)/C=C/c1ccccc1)C(=O)OC)C(=O)O	2.5
O=C(CC(O)(CC(=O)NCCCCN(O)C(=O)/C=C/c1ccccc1)C(=O)O)NCCCCN(O)C(=O)/C=C/c1ccccc1	1.5
CCCCC/C=C/C(=O)N(O)CCCNC(=O)CC1(O)CC(=O)N(CCCN(O)C(=O)/C=C/CCCCC)C1=O (centres undefined)	4.6
CCCCCCCCCCCCC/C=C/C(=O)N(O)CCCC[C@H](NC(=O)[C@@H]1COC(c2ccccc2O)=N1)C(=O)OC(C(C)C)C(C)C(=O)N[C@H]1CCCCN(O)C1=O (some centres undefined)	1
CC(C)(C)OC(=O)C(O)(CC(=O)NCCCN(O)C(=O)/C=C/c1ccccc1)CC(=O)NCCCN(O)C(=O)/C=C/c1ccccc1	4.6
O=C(CC(O)(CC(=O)NCCCN(O)C(=O)/C=C/c1ccccc1)C(=O)O)NCCCN(O)C(=O)/C=C/c1ccccc1	0.76

Reference: ChEMBL document CHEMBL1135988, “Synthesis and biological evaluation of new citrate-based siderophores as potential probes for the mechanism of iron uptake in mycobacteria” (2002)
